{"source": "patent US11370771B2", "about": "“Inhibitors of TRPC6” (Boehringer Ingelheim International GmbH, priority 2018, dated 2022)", "data": [{"tested_on": "TRPC6", "assay": "not given", "conditions": "lung tissue of IPAH patients; cited from earlier work", "values": [{"smiles": "COc1ccccc1Oc1c(NS(=O)(=O)c2ccc(C(C)(C)C)cc2)nc(-c2ncccn2)nc1OCCO", "note": "[bosentan]", "expression of TRPC6": "decreases expression of TRPC6"}]}, {"tested_on": "PASMC", "assay": "not given", "conditions": "cited from earlier work", "values": [{"smiles": "COc1ccccc1Oc1c(NS(=O)(=O)c2ccc(C(C)(C)C)cc2)nc(-c2ncccn2)nc1OCCO", "note": "[bosentan]", "proliferation of PASMC": "decreases proliferation"}]}, {"target": "T1, human TRPC6 (Homo sapiens, UniProt Q9Y210)", "T1 construct": "expressed in transfected cells", "T1 sequence (Q9Y210 1-931)": "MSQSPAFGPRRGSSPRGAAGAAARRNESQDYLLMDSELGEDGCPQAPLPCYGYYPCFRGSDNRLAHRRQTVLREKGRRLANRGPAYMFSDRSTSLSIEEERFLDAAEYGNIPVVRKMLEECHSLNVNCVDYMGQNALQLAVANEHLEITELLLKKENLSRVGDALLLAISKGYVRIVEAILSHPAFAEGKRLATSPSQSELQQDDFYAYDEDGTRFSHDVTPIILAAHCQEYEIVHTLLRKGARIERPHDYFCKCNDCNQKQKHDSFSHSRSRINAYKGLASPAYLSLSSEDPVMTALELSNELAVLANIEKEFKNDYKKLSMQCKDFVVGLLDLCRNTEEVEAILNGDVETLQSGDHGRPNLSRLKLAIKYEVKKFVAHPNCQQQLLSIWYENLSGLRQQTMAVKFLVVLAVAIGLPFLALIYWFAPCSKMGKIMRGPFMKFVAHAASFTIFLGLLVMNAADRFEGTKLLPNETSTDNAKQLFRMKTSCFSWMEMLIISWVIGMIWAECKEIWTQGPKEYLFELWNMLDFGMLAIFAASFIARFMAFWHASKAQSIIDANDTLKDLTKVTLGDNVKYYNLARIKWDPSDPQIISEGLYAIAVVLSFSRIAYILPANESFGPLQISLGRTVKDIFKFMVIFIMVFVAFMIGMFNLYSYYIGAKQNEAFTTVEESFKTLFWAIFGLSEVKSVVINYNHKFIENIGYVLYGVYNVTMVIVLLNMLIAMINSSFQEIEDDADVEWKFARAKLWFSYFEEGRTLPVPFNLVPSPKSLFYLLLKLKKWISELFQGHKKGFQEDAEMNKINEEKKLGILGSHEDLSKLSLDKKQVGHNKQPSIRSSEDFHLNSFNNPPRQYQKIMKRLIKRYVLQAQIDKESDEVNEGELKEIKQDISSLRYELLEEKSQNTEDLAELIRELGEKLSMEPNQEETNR", "assay": "High Throughput Screening Assay Method 1 (FLIPR membrane potential dye, OAG activation, HEK293 cells expressing human TRPC6)", "type": "cell-based", "conditions": "antagonist effect against human TRPC6, 60 μM OAG, read-out: Fluorescence TRPC6 IC50", "excerpt": "This screening assay measures TRPC6 (transient receptor potential cation channel, subfamily C, member 6) ion channel activation via addition either of the commercially available DAG ligand analogue OAG (1-oleoyl-2-acetyl-sn-glycerol) or of the TRPC6 agonist 1-[1-(4,5,6,7,8-pentahydrocyclohepta[2,1-d]thiophen-2-ylcarbonyl)-4-piperidyl]-3-hydrobenzimidazol-2-one (GSK1702934A). The assay utilizes a FLIPR membrane potential (FMP) dye from Molecular Devices, which is a voltage sensitive indicator with a fluorescent quencher. Changes in membrane potential as measured by the fluorescent signal increase during membrane depolarization provide a measurement of channel activity.\nThe commercially available HEK293 cell line expressing human TRPC6 channel (Axxam/PerkinElmer) is scaled up in bulk and frozen in liquid nitrogen. Frozen cell stocks are thawed and re-suspended in culture media as recommended by the manufacturer supplemented with 0.5 mg/ml of geneticin to promote retention of the TRPC6 construct. Cells are plated at a density of 15,000 cells/well in Greiner 384 well poly-D-lysine coated black clear bottom plates, and incubated for 18-20 h at 37° C. and 5% CO2. To initiate the assay, the growth media is removed using a plate washer and 25 ul of a FMP dye mix is added to each well. The 4× stock FMP dye from the manufacturer is diluted 1× with assay buffer (low calcium Tyrode's assay buffer: 130 mM NaCl, 5 mM KCl, 0.15 mM CaCl2), 1 mM MgCl2, 5 mM NaHCO3, 20 mM HEPES pH 7.4) containing 36 μM BAPTA/AM. The cells are incubated at room temperature (19-22° C.) for 30 minutes. For the screening assay, 5 uL of diluted compound stock is added to each well and incubated for 15 minutes at room temperature (19-22° C.). Using the Hamamatsu FDSS6000 or FDSS7000, 10 uL of the synthetic, membrane permeant analog of 1,2 diacylglycerol (DAG), 1-oleoyl-2-acetoyl-n-glycerol (OAG), is added and fluorescent readings taken every second from 50 seconds to 3 minutes. […] Controls and blanks consisted of HEK293 TRPC6 cells that are exposed to OAG. A reference inhibitor added along with the test compound is included as part of the blanks. This inhibitor suppresses the TRPC6 channel activation. These controls set the screening window, and “hits” are defined as those compounds inhibiting the membrane depolarization caused by OAG by at least 50%. IC50 values are determined for compounds that meet these criteria by titrating compound stock at a final starting concentration of 30 μM using a 3-fold serial dilution for 11 points. Curves are generated by fitting each data set to a four-parameter logistic equation using nonlinear regression.", "units": {"IC50": "nM"}, "values": [{"smiles": "Nc1ccc(N2CCN(C(=O)c3ccc(Oc4ccccc4)cc3)CC2)cn1", "note": "[Compound 15, 5-[4-(4-phenoxybenzoyl)piperazin-1-yl]pyridin-2-amine]", "IC50": 422}, {"smiles": "CC(=O)c1ccc(Oc2ccc(C(=O)N3CCC(c4ccc(N)nn4)CC3)cc2)cc1", "note": "[Compound 16, 1-(4-{4-[4-(6-aminopyridazin-3-yl)piperidine-1-carbonyl]phenoxy}phenyl)ethan-1-one]", "IC50": 2070}, {"smiles": "CC(C)c1ccc(Oc2ccc(C(=O)N3CCC(c4ccc(N)nn4)CC3)cc2)cc1", "note": "[Compound 17, 6-(1-{4-[4-(propan-2-yl)phenoxy]benzoyl}piperidin-4-yl)pyridazin-3-amine]", "IC50": 2190}, {"smiles": "CC(C)c1ccc(Oc2ccc(C(=O)N3CCN(c4ccc(N)nn4)CC3)cc2)cc1", "note": "[Compound 18, 6-(4-{4-[4-(propan-2-yl)phenoxy]benzoyl}piperazin-1-yl)pyridazin-3-amine]", "IC50": 1310}, {"smiles": "Nc1ccc(N2CCN(C(=O)c3ccc(Oc4ccc(C(F)(F)F)cc4)cc3)CC2)cn1", "note": "[Compound 19, 5-(4-{4-[4-(trifluoromethyl)phenoxy]benzoyl}piperazin-1-yl)pyridin-2-amine]", "IC50": 1330}, {"smiles": "CCc1ccc(Oc2ccc(C(=O)N3CCN(c4ccc(N)nn4)CC3)cc2)cc1", "note": "[Compound 20, 6-{4-[4-(4-ethylphenoxy)benzoyl]piperazin-1-yl}pyridazin-3-amine]", "IC50": 1160}, {"smiles": "Nc1ccc(N2CCN(C(=O)c3ccc(Oc4ccc(OC(F)(F)F)cc4)cc3)CC2)nn1", "note": "[Compound 21, 6-(4-{4-[4-(trifluoromethoxy)phenoxy]benzoyl}piperazin-1-yl)pyridazin-3-amine]", "IC50": 191}, {"smiles": "Nc1ccc(N2CCN(C(=O)c3ccc(Oc4ccc(C(F)(F)F)c(F)c4)cc3)CC2)nn1", "note": "[Compound 22, 6-(4-{4-[3-fluoro-4-(trifluoromethyl)phenoxy]benzoyl}piperazin-1-yl)pyridazin-3-amine]", "IC50": 8880}, {"smiles": "Nc1ccc(N2CCN(C(=O)c3ccc(Oc4ccccc4)cc3)CC2)nn1", "note": "[Compound 24, 6-[4-(4-phenoxybenzoyl)piperazin-1-yl]pyridazin-3-amine]", "IC50": 199}, {"smiles": "CN(C)C(=O)c1ccc(Oc2ccc(C(=O)N3CCN(c4ccc(N)nn4)CC3)cc2)cc1", "note": "[Compound 25, 4-{4-[4-(6-aminopyridazin-3-yl)piperazine-1-carbonyl]phenoxy}-N,N-dimethylbenzamide]", "IC50": 8970}, {"smiles": "Nc1ccc(N2CCN(C(=O)c3ccc(Oc4ccc(C(F)(F)F)cc4)cc3)CC2)nn1", "note": "[Compound 26, 6-(4-{4-[4-(trifluoromethyl)phenoxy]benzoyl}piperazin-1-yl)pyridazin-3-amine]", "IC50": 3750}]}]}
